Source: paper PMC11487561 (ACS Chemical Neuroscience, 2024)

Experiments:
Glutamate, Kainate = test: Lead Profiling Screen – Eurofins Panlabs; type: binding, rat
GABAA, Muscimol, Central = test: Lead Profiling Screen – Eurofins Panlabs; type: binding, rat
Endothelin ETB = molecular target: T1, Endothelin ETB (Homo sapiens, UniProt P24530); test: Lead Profiling Screen – Eurofins Panlabs; type: binding; conditions: read-out: % inh at 10 μM
T1 construct: Eurofins Panlabs (contract screen)

Cannabinoid CB1 = molecular target: T2, Cannabinoid CB1 (Homo sapiens, UniProt P21554); test: Lead Profiling Screen – Eurofins Panlabs; type: binding; conditions: read-out: % inh at 10 μM
T2 construct: Eurofins Panlabs (contract screen)
T2 sequence (P21554 whole entry): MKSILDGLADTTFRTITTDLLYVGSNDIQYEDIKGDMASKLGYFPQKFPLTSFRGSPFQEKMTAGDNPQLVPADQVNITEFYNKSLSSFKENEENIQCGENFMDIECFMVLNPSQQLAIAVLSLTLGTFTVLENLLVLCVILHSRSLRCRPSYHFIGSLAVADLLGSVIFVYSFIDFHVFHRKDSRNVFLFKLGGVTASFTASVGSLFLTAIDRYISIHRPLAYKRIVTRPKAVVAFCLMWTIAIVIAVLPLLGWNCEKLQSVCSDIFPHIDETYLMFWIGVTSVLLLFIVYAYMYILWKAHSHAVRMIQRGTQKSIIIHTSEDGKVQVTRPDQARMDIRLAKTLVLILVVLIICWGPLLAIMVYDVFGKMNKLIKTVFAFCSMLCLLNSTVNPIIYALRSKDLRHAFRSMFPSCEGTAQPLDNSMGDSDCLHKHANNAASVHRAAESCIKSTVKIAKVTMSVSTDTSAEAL

[1] = Binding in plasma from human (equilibrium dialysis); type: in vitro ADME; conditions: human, plasma, fraction unbound; equilibrium dialysis; read-out: human fu,plasma
Experimental: (§1) Binding in plasma from rat and human.
(§2) Determination of compounds’ fraction unbound (f u) in plasma from rat and human was conducted in vitro via equilibrium dialysis using HTDialysis membrane plates. Dialysis membranes (four paired strips per HTD assay) were hydrated as described by the manufacturer and inserted into the HTD plate, which was assembled and prepared for sample addition by the dispensing of blank buffer (DPBS, 100 µL/well) into the ‘top half’ of each membrane-split well. Each compound was diluted into plasma from each species (5 µM final concentration), which was aliquoted in triplicate to the ‘bottom half’ of the prepared HTD plate wells. The HTD plate was sealed and incubated for 6 hours at 37 °C. Following incubation, each well (both top and bottom halves) were transferred (20 µL) to the corresponding wells of a 96-shallow-well (V-bottom) plate. The daughter plates were then matrix-matched (buffer side wells received equal volume of plasma, and plasma side wells received equal volume of buffer), and extraction solution (120 µL; acetonitrile containing 50 nM carbamazepine as IS) was added to all wells of both daughter plates to precipitate protein and extract test article. The plates were then sealed and centrifuged (3500 rcf) for 10 minutes at ambient temperature. Supernatant (60 µL) from each well of the daughter plates was then transferred to the corresponding wells of new daughter plates (96-shallow-well, V bottom) containing water (Milli-Q, 60 µL/well), and the plates were sealed in preparation for LC-MS/MS analysis (see below). fu was calculated as (analyte to IS MS peak area ratio from Trans-buffer side) / (analyte to IS MS peak area ratio from Cis-plasma side). Mean values for each species were calculated from 3 replicates.

CYP 2D6 = molecular target: T3, CYP 2D6 (Homo sapiens, UniProt P10635); test: P450 inhibition in pooled human liver microsomes; type: in vitro ADME; conditions: pooled HLM, NADPH, CYP-specific probe substrates
T3 construct: from tissue; host or cells: pooled human liver microsomes (according to the earlier reading)
T3 sequence (P10635 whole entry): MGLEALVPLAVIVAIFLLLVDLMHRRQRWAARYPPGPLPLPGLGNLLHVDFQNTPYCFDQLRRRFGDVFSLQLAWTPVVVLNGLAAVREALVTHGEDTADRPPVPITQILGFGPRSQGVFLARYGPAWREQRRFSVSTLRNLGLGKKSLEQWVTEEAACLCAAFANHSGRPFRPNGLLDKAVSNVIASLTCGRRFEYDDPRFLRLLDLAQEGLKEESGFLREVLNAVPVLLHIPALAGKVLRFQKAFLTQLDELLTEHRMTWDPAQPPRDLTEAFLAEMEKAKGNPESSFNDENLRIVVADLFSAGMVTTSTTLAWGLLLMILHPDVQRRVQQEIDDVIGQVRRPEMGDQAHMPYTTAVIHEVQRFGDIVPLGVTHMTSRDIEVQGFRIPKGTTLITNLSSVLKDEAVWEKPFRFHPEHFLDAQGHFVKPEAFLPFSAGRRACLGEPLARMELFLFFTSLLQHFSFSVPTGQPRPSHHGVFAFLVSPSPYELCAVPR

[2] = molecular target: Transporter, Serotonin (5-Hydroxytryptamine) (SERT) (Homo sapiens, UniProt P31645); test: Lead Profiling Screen – Eurofins Panlabs; type: binding; conditions: read-out: % inh at 10 μM
Transporter, Serotonin (5-Hydroxytryptamine) (SERT), sequence (P31645 whole entry): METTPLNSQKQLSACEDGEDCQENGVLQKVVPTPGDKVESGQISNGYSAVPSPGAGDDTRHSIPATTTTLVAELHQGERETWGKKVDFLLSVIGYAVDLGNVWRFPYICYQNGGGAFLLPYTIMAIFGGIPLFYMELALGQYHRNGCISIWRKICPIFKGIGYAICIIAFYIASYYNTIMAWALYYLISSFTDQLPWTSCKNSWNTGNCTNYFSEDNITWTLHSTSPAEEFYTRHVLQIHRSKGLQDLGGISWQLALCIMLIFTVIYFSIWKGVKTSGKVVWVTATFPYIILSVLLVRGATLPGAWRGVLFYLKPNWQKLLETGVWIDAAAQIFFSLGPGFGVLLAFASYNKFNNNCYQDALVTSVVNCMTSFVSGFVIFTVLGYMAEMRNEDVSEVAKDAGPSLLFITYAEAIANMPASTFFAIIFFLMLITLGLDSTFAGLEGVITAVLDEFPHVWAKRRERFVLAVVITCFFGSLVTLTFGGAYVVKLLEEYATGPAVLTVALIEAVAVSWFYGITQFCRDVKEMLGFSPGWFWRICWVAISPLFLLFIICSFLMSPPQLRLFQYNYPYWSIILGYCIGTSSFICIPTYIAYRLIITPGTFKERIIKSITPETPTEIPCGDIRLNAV

In vivo rat iv/po PK = conditions: male, Sprague-Dawley, plasma, rat (SD); for bioavailability: rat, po
Experimental: Intravenous pharmacokinetics and plasma-brain level determination (IV PK PBL) VU6016235 […]
Dawley rats (n = 1; 342 gram body weights) via injection into a surgically-implanted jugular vein catheter. […] Blood samples were collected serially from a surgically implanted carotid artery catheter in each animal over multiple post-administration time points (0.033, 0.117, 0.25, 0.5, 1, 2, 4, 7, and 24 hours) into chilled, K2EDTA anticoagulant-fortified tubes and immediately placed on wet ice. […]
For PO PK studies, VU6016235 was formulated in 10% Tween 80 in water and administered orally as a single dose of 10 mg/kg to male Sprague Dawley rats (10 ml/kg, n=2) that were fasted overnight. […]
anticoagulant-fortified tubes and immediately placed on wet ice. The blood samples were then centrifuged (1700 rcf, 5 minutes, 4 °C) in order to obtain plasma samples, which were stored at -80 °C until analysis […]
Samples preparation for bioanalysis
Plasma samples from the in-life phase of the study were thawed at ambient temperature (benchtop), and then aliquots (20 µL per sample) were transferred to a 96-shallow-well (V-bottom) plate. Matrix-matched quality control (QC) samples and a standard curve of […] (1 mg/mL DMSO stock solution) were prepared in blank rat plasma (K2EDTA-treated) or blank brain homogenate via serial dilution and transferred (20 µL each) to the plate along with multiple blank plasma and brain homogenate samples. Acetonitrile (120 µL) containing IS (10 nM carbamazepine) was added to each well of the plate to precipitate protein. The plate was then centrifuged (4000 rcf, 5 minutes, ambient temperature), and resulting supernatants (60 µL each) were transferred to a new 96-shallow-well (V-bottom) plate containing an equal volume (60 µL per well) of water (Milli-Q purified). […]
The plasma standard curve and QCs were used for compounds quantitation in brain.
as §1, §2

CYP 1A2 = molecular target: T4, CYP 1A2 (Homo sapiens, UniProt P05177); test: P450 inhibition in pooled human liver microsomes; type: in vitro ADME; conditions: pooled HLM, NADPH, CYP-specific probe substrates
T4 construct: from tissue; host or cells: pooled human liver microsomes (according to the earlier reading)
T4 sequence (P05177 whole entry): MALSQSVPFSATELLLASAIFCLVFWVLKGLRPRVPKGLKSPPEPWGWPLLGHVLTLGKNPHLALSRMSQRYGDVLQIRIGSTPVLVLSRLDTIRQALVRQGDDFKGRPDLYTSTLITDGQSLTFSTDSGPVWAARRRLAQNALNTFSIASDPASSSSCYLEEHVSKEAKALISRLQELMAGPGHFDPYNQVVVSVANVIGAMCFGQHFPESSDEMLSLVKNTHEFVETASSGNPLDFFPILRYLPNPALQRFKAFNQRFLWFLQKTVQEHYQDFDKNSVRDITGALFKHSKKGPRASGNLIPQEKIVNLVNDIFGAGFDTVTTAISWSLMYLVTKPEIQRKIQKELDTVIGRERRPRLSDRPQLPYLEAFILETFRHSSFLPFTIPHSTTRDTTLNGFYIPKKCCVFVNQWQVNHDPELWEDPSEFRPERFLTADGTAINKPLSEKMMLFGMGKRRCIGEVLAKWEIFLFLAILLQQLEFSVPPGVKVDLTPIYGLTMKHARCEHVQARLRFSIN

[3] = molecular target: Transporter, Dopamine (DAT) (Homo sapiens, UniProt Q01959); test: Lead Profiling Screen – Eurofins Panlabs; type: binding; conditions: read-out: % inh at 10 μM
Potassium Channel [KATP] = Potassium Channel [KATP] (Cricetus cricetus, UniProt Q09427); test: Lead Profiling Screen – Eurofins Panlabs; type: binding, hamster; conditions: read-out: % inh at 10 μM
Potassium Channel [KATP], sequence (Q09427 whole entry): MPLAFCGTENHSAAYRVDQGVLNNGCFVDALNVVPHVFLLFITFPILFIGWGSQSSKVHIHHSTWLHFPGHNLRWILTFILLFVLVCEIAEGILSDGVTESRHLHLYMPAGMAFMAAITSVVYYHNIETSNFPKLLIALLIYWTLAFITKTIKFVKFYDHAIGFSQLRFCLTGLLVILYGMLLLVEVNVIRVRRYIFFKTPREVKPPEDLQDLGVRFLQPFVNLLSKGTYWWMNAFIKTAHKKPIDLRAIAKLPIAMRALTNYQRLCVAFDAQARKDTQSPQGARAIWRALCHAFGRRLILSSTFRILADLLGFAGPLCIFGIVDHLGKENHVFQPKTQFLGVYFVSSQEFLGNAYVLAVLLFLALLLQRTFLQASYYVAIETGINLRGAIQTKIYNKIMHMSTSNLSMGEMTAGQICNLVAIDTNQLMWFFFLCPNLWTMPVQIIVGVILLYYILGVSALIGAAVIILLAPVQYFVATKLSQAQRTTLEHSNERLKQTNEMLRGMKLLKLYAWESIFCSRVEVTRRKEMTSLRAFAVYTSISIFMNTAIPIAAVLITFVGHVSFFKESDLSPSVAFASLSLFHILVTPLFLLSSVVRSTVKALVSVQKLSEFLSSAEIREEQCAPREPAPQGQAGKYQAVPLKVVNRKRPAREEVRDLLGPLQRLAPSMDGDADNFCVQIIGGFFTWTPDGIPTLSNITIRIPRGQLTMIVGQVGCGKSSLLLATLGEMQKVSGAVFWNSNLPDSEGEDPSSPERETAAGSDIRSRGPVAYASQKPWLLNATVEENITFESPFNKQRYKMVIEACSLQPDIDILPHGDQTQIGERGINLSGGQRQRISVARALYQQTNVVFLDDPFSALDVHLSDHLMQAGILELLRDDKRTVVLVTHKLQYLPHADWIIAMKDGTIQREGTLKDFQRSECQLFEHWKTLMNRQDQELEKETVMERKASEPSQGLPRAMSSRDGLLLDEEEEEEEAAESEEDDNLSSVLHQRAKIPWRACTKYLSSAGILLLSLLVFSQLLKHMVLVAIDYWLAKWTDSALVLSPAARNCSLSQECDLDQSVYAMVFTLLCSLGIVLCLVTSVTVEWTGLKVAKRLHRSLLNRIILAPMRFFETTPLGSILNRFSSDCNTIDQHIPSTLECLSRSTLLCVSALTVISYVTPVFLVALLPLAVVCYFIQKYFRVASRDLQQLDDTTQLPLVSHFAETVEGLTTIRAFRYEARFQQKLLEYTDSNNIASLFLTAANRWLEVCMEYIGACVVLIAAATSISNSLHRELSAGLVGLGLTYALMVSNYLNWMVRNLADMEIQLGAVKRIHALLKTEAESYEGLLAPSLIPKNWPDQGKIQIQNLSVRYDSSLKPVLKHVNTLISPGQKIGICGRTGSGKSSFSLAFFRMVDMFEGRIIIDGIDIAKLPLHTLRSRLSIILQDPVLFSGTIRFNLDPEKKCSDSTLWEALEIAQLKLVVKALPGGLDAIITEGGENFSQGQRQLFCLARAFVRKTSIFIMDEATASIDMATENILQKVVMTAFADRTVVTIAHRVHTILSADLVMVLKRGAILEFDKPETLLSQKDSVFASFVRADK

Purinergic P2Y = test: Lead Profiling Screen – Eurofins Panlabs; type: binding, rat
[4] = molecular target: Serotonin (5-Hydroxytryptamine) 5-HT3 (Homo sapiens, UniProt P46098); test: Lead Profiling Screen – Eurofins Panlabs; type: binding; conditions: read-out: % inh at 10 μM
Serotonin (5-Hydroxytryptamine) 5-HT3, sequence (P46098 24-478): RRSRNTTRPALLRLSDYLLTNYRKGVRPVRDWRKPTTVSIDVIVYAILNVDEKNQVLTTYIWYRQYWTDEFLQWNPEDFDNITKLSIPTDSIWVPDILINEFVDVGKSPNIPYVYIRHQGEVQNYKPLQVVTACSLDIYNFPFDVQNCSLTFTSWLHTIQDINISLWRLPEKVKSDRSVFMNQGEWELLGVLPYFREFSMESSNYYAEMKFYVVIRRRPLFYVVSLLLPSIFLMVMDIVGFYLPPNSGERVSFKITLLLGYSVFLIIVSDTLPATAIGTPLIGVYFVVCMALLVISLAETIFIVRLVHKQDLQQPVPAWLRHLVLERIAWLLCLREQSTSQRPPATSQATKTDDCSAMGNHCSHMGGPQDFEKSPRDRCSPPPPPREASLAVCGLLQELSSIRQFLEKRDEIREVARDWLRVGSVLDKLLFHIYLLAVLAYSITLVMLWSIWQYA

Glutamate, NMDA, Glycine = Glutamate, NMDA, Glycine (Rattus norvegicus, UniProt P35439); test: Lead Profiling Screen – Eurofins Panlabs; type: binding; conditions: read-out: % inh at 10 μM
Glutamate, NMDA, Glycine, sequence (P35439 394-800 limits assumed): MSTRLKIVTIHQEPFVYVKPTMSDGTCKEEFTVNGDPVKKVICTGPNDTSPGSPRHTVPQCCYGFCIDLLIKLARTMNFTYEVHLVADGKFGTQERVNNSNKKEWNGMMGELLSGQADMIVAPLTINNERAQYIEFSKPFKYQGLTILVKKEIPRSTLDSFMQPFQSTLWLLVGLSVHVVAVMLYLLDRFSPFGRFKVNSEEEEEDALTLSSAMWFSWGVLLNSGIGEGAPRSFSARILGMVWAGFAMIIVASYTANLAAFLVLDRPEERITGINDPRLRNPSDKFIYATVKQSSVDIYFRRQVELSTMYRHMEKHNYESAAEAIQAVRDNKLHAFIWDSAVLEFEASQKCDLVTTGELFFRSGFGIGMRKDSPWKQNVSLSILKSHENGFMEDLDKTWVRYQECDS

T1 sequence (P24530 27-442): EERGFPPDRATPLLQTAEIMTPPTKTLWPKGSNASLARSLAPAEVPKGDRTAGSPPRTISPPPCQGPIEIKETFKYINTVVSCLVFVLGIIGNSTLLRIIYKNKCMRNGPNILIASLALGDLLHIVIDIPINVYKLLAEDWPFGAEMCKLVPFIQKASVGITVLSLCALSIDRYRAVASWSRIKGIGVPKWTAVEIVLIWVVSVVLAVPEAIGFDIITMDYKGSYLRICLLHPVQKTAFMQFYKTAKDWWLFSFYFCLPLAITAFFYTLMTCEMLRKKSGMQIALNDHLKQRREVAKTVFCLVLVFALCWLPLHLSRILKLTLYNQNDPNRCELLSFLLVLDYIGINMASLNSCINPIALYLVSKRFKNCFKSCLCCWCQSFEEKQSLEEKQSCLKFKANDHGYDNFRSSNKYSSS

In the case of `Cc1nc(C)c2c(n1)sc1c(NCc3ccc(C(C)(C)O)cc3)nccc12` [22g], the “% inh at 10 μM” value (Glutamate, Kainate) is reported as -8%, the “% inh at 10 μM” value (GABAA, Muscimol, Central) is reported as 1% and the inhibition at 10 µM (Endothelin ETB) is reported as 6%. For the same molecule, the inhibition at 10 µM (Cannabinoid CB1) was -4%, the fraction unbound at 6 h, 5 µM [1] was 0.014 and the IC50 (CYP 2D6) was over 30 µM. It also gave an inhibition at 10 µM [2] of 1%, an MRT (In vivo rat iv/po PK; iv 1.0 mg/kg) of 4.3 h and a half-life (In vivo rat iv/po PK; iv 1.0 mg/kg) of 3.4 h. The clearance (In vivo rat iv/po PK; iv 1.0 mg/kg, read-out: CLp) was 4.9 mL/min/kg, the Vd (In vivo rat iv/po PK; iv 1.0 mg/kg, read-out: Vss) was 1.3 L/kg and the AUC(0-inf) (In vivo rat iv/po PK; po 3.0 mg/kg) was 8410 ng·h/mL. The Cmax (In vivo rat iv/po PK; po 3.0 mg/kg) was 657 ng/mL, the Tmax (In vivo rat iv/po PK; po 3.0 mg/kg) was 3 h and the AUC(0-inf) (In vivo rat iv/po PK; po 30.0 mg/kg) was 59200 ng·h/mL. The Cmax (In vivo rat iv/po PK; po 30.0 mg/kg) was 4460 ng/mL, the Tmax (In vivo rat iv/po PK; po 30.0 mg/kg) was 5 h and the bioavailability (In vivo rat iv/po PK; 3 mg/kg, po 3.0 mg/kg) was at least 100%. It also gave a bioavailability (In vivo rat iv/po PK; 30 mg/kg, po 30.0 mg/kg) of 84%, an IC50 (CYP 1A2) of 23 µM and an inhibition at 10 µM [3] of 25%. For the same molecule, the inhibition at 10 µM (Potassium Channel [KATP]) was 4%, the “% inh at 10 μM” value (Purinergic P2Y) was 9% and the inhibition at 10 µM [4] was -20%. For the same molecule, the inhibition at 10 µM (Glutamate, NMDA, Glycine) was -9%.
